Experimental data from US7148204B2, “Antisense modulation of bcl-x expression” (Isis Pharmaceuticala, Inc., priority 1998, dated 2006).

Legend:
bcl-xl protein = assay: Immunoblot of bcl-xl protein in CEM cells; assay type: cell-based, human
Procedure: (§1) Postnuclear detergent lysates were prepared as described by Reed et al. (Cancer Res., 1991, 51, 6529–6538), and the protein concentration was determined using a Bradford method protein assay kit (Bio-Rad, Hercules, Calif.). Protein (20 μg) was loaded in each lane, followed by electrophoresis on a 12% sodium dodecyl sulfate-polyacrylamide gel, followed by immunoblotting (Winston et al., 1993). The primary antibody was a 0.4 μg/ml dilution of the mouse monoclonal anti-human bcl-2 (clone 124, Dako, Carpinteria, Calif.), a 4.0 μg/ml dilution of the rabbit polyclonal anti-human bcl-xs/l (Dako), or a 0.3 μg/ml dilution of rabbit polyclonal anti-human Bax (N-20, Santa Cruz Biotechnology, Santa Cruz, Calif.). For development and STORM fluorescent imaging, the secondary antibody was peroxidase-conjugated sheep anti-mouse or donkey anti-rabbit (Amersham, Little Chalfort, UK). Chemiluminescence imaging and quantification were preformed using the STORM instrument and ImageQuant software (Molecular Dynamics, Sunnyvale, Calif.).

bcl-x = bcl-x protein in SEM-K2 cells by flow cytometry; assay type: cell-based, human; details: 10 μM without cationic lipid, 48 hours after initial treatment
Procedure: SEM-K2 is a human cell line derived from a patient suffering from a t(4;11) acute lymphoblastic leukemia. Pocock, C. F. E. et al., Br. J. Haematol. (1995), 90(4), 855–67. SEM-K2 cells in exponential phase of growth were maintained in […] medium (Life Technologies, Inc., Gaithersburg, Md.) supplemented with 10% fetal bovine serum, 2 mM glutamine and penicillin/streptomycin, at 37°C. in 5%CO2/95% air. Cells were transferred in 1 mL volumes at approximately 1–5×10^6 cells/ml to 24-well plates. After one hour, 10 μM of ISIS 15999 or scrambled control 15691 ([…]; SEQ ID No. 41) was added to wells, without cationic lipid. At 24 hours and 48 hours repeat doses of 5 μM oligonucleotide were added. […]
For Western blot and flow cytometric protein analysis, cells were washed once in phosphate-buffered saline and pelleted by centrifugation at 1200 rpm for 5 minutes, and resuspended in cell lysis buffer (5M NaCl, 0.1 M HEPES, 500 mM sucrose, 0.5M EDTA, 100 mM spermine, 1 mg/ml aprotinin, 10% Triton X-100) for 15 minutes on ice. Total protein was quantified spectrophotometrically (BioRad) and 100 μg lysate was loaded onto 15% polyacrylamide gels and run at 200V for 45 minutes. […] Cells were analyzed using a FACScalibur™ running Cellquest software (Becton Dickinson, Franklin Lakes, N.J.). […] Fluorescence detector 1 was used with logarithmic amplification for detection of FITC fluorescence. […]

bcl-2 protein = assay: Immunoblot of bcl-2 protein in CEM cells; assay type: cell-based, human; details: even at the highest concentration
Procedure: as §1

human bcl-x mRNA = assay: Northern blot analysis of bcl-x mRNA levels in A549 cells; assay type: cell-based
Procedure: Eighteen hours after antisense treatment, cell monolayers were washed twice with cold PBS and lysed in 1 mL RNAZOL™ (TEL-TEST “B” Inc., Friendswood, Tex.). Total RNA was prepared following manufacturer's recommended protocols. Twenty micrograms of total RNA was fractionated by electrophoresis through 1.2% agarose gels containing 1.1% formaldehyde using a MOPS buffer system (AMRESCO, Inc. Solon, Ohio). RNA was transferred from the gel to HYBOND™-N+ nylon membranes (Amersham Pharmacia Biotech, Piscataway, N.J.) by overnight capillary transfer using a Northern/Southern Transfer buffer system (TEL-TEST “B” Inc., Friendswood, Tex.). RNA transfer was confirmed by UV visualization. Membranes were fixed by UV cross-linking using a STRATALINKER™ UV Crosslinker 2400 (Stratagene, Inc, La Jolla, Calif.).
Membranes were probed using QUICKHYB™ hybridization solution (Stratagene, La Jolla, Calif.) using manufacturer's recommendations for stringent conditions with an 822-base pair bcl-x specific probe prepared by PCR from bases 33–855 of human bcl-xl sequence (Boise et al., 1993, Cell 74:597–608; GenBank accession no. L20121). To normalize for variations in loading and transfer efficiency membranes were stripped and probed for glyceraldehyde-3-phosphate dehydrogenase (GAPDH) RNA (Clontech, Palo Alto, Calif.). Hybridized membranes were visualized and quantitated using a PHOSPHORIMAGER™ and IMAGEQUANT™ Software V3.3 (Molecular Dynamics, Sunnyvale, Calif.). Data was normalized to GAPDH levels in untreated controls.
Oligonucleotides were tested by Northern blot analysis as described in Example 14. Oligonucleotides were tested in A549 cells at a concentration of 400 nM. The results are Table 2:
Oligonucleotides were tested by Northern blot analysis as described in Example 14. Chimeric oligonucleotides were in A549 cells at a concentration of 200 nM. Where present, “N.D.” indicates “not determined”.

TCCCGGTTGCTCTGAGACAT (5-10-5 2'-MOE gapmer, phosphorothioate, further chemistry not given here) [ISIS 15999]
level of bcl-xl protein (bcl-xl protein): dose dependent decrease
reduction in bcl-x (median fluorescence intensity) (bcl-x): 50%
bcl-2 protein levels (bcl-2 protein): did not decrease
reduction of bcl-x mRNA levels (human bcl-x mRNA; 25 nM (lowest dose tested)): approximately 70%
inhibition of bcl-x mRNA (human bcl-x mRNA; 50 nM to 200 nM): greater than 90%
bcl-x mRNA at the highest dose (human bcl-x mRNA; 200 nM): nearly complete ablation
IC50 (human bcl-x mRNA; dose-response, Northern blot): < 25 nM
